Measured values reported in ChEMBL document CHEMBL1201862, “PubChem BioAssay data set” (2004).
Calls of active or inactive are those of the source.

Key:
[1] = molecular target: Glucose-6-phosphate 1-dehydrogenase (Homo sapiens, UniProt P11413); experiment: inhibition of Homo sapiens G6PD, dose series – biochemical, fluorescence, selectivity assay for P. falciparum G6PD inhibitor project, dose response (AID 504792); format: functional
Large T antigen = Large T antigen (Simian virus 40, UniProt P03070); format: functional, Betapolyomavirus macacae;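 further: Confirmatory-stage PubChem screen for compounds that inhibit SV40 T antigen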
[2] = molecular target: T1, RNA-binding protein pos-1 (Caenorhabditis elegans, UniProt G5EF15); experiment: disruptors of C. elegans POS-1 RNA interaction – biochemical, fluorescence polarization, dose response (AID 1964);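 further: purified POS-1 fused to maltose binding protein made in E. coli; potency of compounds blocking POS-1 binding to fluorescent RNA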
T1 sequence (G5EF15 whole entry): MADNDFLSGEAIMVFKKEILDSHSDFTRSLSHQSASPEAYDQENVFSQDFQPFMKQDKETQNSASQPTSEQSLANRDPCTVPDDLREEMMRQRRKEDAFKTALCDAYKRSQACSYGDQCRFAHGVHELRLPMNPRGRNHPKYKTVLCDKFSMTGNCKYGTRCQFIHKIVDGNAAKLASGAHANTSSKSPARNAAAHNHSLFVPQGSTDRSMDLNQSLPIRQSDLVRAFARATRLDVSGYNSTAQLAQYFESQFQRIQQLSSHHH

[3] = molecular target: DNA dC->dU-editing enzyme APOBEC-3G (Homo sapiens, UniProt Q9HC16); format: functional;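 further: Dose-response counterscreen measuring inhibition of APOBEC3G DNA deaminase activity, run while confirming APOBEC3A inhibitors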
[4] = molecular target: DNA dC->dU-editing enzyme APOBEC-3A (Homo sapiens, UniProt P31941); experiment: Dose Response confirmation of small molecule APOBEC3A DNA Deaminase Inhibitors via a fluorescence-based single-stranded DNA deaminase assay. [Related pubchem assays (depositor defined):AID493011, AID493024]; format: functional
[5] = molecular target: T2, Zinc finger protein mex-5 (Caenorhabditis elegans, UniProt Q9XUB2); experiment: potency of MEX-5 RNA-binding blockers – biochemical, C. elegans, fluorescence polarization, dose response (AID 1960)
T2 sequence (Q9XUB2 whole entry): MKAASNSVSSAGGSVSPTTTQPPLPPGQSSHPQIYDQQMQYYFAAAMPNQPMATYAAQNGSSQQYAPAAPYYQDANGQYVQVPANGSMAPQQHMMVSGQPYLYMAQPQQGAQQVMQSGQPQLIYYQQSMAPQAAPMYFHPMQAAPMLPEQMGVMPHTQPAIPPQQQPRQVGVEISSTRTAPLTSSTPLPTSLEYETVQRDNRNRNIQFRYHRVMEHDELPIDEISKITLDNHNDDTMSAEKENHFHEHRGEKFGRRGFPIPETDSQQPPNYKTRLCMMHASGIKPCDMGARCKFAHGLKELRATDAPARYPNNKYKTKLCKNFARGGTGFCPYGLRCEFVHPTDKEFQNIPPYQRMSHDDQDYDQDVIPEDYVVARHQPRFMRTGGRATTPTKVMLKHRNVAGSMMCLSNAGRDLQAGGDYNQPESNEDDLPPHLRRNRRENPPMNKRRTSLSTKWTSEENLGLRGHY

[6] = molecular target: UDP-galactopyranose mutase (Mycobacterium tuberculosis, UniProt P9WIQ1); experiment: Inhibitors of Mycobacterium tuberculosis UDP-galactopyranose mutase (UGM) enzyme Measured in Biochemical System Using Plate Reader - 2105-02_Inhibitor_Dose_CherryPick_Activity. [Related pubchem assays (depositor defined):AID504439]
Sequence of UDP-galactopyranose mutase (P9WIQ1 whole entry): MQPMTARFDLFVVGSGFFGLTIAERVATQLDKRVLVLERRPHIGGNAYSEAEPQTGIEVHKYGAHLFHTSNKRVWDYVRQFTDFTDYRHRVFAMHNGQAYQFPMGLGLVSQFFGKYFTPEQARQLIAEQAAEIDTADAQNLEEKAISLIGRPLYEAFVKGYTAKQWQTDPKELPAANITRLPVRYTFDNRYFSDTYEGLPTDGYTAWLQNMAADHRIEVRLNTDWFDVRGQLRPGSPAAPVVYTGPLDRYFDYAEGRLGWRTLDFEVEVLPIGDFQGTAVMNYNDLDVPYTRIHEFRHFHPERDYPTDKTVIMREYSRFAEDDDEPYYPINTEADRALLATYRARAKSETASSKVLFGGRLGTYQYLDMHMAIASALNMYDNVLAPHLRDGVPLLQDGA

Sequence of Large T antigen (P03070 whole entry, the tested form may be a part): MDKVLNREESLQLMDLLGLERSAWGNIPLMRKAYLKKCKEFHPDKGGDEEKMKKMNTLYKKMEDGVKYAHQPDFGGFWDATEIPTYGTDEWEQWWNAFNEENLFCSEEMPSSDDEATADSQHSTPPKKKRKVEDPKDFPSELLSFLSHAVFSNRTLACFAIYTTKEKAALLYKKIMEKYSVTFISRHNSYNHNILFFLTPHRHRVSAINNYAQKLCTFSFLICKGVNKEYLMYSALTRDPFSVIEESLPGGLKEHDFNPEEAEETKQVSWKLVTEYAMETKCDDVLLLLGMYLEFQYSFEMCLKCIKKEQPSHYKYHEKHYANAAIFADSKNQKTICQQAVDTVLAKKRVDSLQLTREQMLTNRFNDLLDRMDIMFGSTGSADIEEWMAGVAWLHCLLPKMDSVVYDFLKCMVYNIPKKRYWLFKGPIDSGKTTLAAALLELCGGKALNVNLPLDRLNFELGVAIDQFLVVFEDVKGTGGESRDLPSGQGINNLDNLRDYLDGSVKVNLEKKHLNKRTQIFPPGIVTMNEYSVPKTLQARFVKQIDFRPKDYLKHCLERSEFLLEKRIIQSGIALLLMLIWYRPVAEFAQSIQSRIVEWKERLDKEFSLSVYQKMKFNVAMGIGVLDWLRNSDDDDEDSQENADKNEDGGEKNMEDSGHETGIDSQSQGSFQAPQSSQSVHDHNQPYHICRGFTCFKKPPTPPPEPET
Sequence of Glucose-6-phosphate 1-dehydrogenase (P11413 whole entry): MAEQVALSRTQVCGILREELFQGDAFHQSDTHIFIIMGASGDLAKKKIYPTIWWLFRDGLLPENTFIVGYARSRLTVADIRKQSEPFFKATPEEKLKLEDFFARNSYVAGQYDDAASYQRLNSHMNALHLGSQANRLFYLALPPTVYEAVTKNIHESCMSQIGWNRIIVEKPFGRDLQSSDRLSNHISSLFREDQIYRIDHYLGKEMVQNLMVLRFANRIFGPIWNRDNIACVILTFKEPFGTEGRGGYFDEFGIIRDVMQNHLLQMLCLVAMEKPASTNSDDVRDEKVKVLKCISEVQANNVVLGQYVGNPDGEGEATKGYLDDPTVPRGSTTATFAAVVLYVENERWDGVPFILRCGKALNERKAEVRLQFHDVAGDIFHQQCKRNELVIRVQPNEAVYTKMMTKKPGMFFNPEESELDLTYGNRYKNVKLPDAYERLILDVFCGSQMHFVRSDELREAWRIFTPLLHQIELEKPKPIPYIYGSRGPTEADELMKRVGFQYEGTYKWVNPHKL
Sequence of DNA dC->dU-editing enzyme APOBEC-3G (Q9HC16 whole entry): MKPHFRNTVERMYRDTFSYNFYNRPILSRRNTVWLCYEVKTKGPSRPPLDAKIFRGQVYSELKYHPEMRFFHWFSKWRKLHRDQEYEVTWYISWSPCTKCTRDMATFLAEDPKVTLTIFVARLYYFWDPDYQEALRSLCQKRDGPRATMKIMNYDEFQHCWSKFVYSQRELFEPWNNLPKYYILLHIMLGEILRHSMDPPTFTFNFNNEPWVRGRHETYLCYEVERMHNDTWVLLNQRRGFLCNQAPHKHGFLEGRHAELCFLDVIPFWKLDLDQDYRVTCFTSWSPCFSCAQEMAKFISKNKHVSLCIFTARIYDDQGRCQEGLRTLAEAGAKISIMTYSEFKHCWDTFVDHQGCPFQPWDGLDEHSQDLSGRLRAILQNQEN
Sequence of DNA dC->dU-editing enzyme APOBEC-3A (P31941 whole entry): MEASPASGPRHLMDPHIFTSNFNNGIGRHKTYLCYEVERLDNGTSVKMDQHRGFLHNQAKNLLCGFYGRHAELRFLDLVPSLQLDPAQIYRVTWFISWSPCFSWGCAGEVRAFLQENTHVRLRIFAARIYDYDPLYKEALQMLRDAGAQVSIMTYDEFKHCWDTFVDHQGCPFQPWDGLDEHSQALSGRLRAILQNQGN

SMILES	IC50 [1]	IC50 (Large T antigen)	EC50 [2]	IC50 [3]	IC50 [4]	EC50 [5]	AC50 [6]
c1cncc(CNc2ccc3c(c2)OCO3)c1	> 80 µM (inactive)	25.4 µM (active)					
NC(=O)C[n+]1cccc2ccccc21			29.7 µM (active)	2.52 µM (active)	2.69 µM (active)	22.3 µM (active)	311 µM (active)
